According to patent US20250154288A1, “CYTOTOXICITY TARGETING CHIMERAS FOR C-C CHEMOKINE RECEPTOR 2-EXPRESSING CELLS” (GLAXOSMITHKLINE INTELLECTUAL PROPERTY DEVELOPMENT LIMITED, priority 2022, published 2025):
Structures can show the parent of a compound that is named as a salt.

Experiments:
[1] = tested on: CCR2 expressing cells (CD11b+Ly6c+ Hi) in peripheral blood; assay: In Vivo Depletion Assay (flow cytometry of peripheral blood); parameters: species or system Human CCR2 (hCCR2) knock-in mice; details: hCCR2 knock-in mice; IV 0.1 mpk compound + 10 mpk anti-cotinine antibody (mouse IgG2a Fc); peripheral blood at 48 hr
Protocol: Human CCR2 (hCCR2) knock-in mice (057 background) were dosed intravenously with a PBS solution containing a compound of Formula (I) to measure depletion of CCR2 expressing cells in peripheral blood. Peripheral blood from IV dosed mice was also analyzed to determine PK properties of the ARM compounds of Formula (I).
Stock solution preparation: Stock solutions of compounds of Formula (I) were prepared at 20 mg/mL and 100 mg/mL in DMSO for PK/PD and dose tolerability studies respectively. Stock solutions were stored at −20° C. until further usage.
Formulations preparation: On the day of experiment, the stock solution of the compound of Formula (I) was removed from storage at −20° C. and thawed at room temperature. Anti-cotinine antibody having a heavy chain sequence of SEQ ID NO: 13 and a light chain sequence of SEQ ID NO: 14 (rabbit variable region sequence with mouse IgG2a Fc domain), if required was removed from storage at −80° C. and thawed at room temperature. Antibody vials were immediately transferred into wet ice after thawing. Compounds of Formula (I) were further diluted in DMSO as per experimental requirements.
Formulation composition: The formulation composition was Saline: DMSO: PBS. Saline was added based on the quantity required and then stock solution of the compound of Formula (I) prepared in DMSO, followed by addition of antibody in PBS. Formulations were incubated at room temperature for 30 minutes before administration to the mouse. DMSO was used at 1 to 2% (v/v) in the final formulation.
Administration to Animal: Solution formulation of antibody and compound of Formula (I) was injected (bolus injection) to the restrained mouse in the right/left lateral tail vein. Animals were dosed with 0.1 milligram per kilogram (mpk) of the compound of Formula (I) and 10 mpk of the anti-cotinine antibody.
Terminal bleeding at end of experiment (48 hr): Approximately 250 μL of blood in K2EDTA tube and approximately 250 μL of blood in SST (serum separation tube) was collected from each mouse through retro-orbital bleeding under deep isoflurane anesthesia. After bleeding, each mouse was sacrificed by cervical dislocation. The blood distribution at termination was determined as follows: • For PK: 50 μL of K2EDTA blood was transferred to another tube for PK • Flow cytometry: Remaining blood (˜200 μL) was used for flow cytometry analysis. • For serum collection: serum separator tubes (BD) were centrifuged at 4° C., 5000 rpm for 15 minutes. Approximately 100 μL serum was separated and stored at −80° C. for further usage. • Blood drug concentration: Samples collected at the various timepoints (0.25 hr, 2 hr, 24 and 48 hr) were analyzed to determine blood drug concentration.
CCR2 depletion in peripheral blood was determined by flow cytometry. Briefly, peripheral blood was collected from all animals at the end of study termination and processed. Blood samples were lysed using 1×RBC Lysis buffer and the resulting cell pellet was washed twice in FACS buffer (HBSS containing 5% FBS). Cells were subjected to Fc blocking using mouse Fc block from Biolegend (Trustain, anti-mouse CD16/32, Cat: 101319) to block non-specific binding followed by surface staining for immune markers (CD45, CD3, CD11b, Ly6C, human CCR2). Surface staining was done for 30 minutes in ice and cells were washed twice to remove unbound antibodies. Cells were stained with 7AAD to determine viability and acquired on BD FACSVerse flow cytometer. Appropriate FMO controls and single-color controls were included in the experiment for gating and compensation respectively.
Percent depletion of CD11b+Ly6c+ Hi cells and CCR2 expression for the different treatment groups was determined. The results are shown below in Table 4 and are reported as percent (%) depletion of CCR2 expressing cells.

[2] = molecular target: human alpha1 nicotinic acetylcholine (nACh) receptor (Homo sapiens, UniProt P02708+Q07001); assay: Nicotinic Acetylcholine Receptor Antagonism Assay (IONFlux automated patch clamp); type: cell-based; details: for IC50: antagonism of nAChR stimulated with acetylcholine, average if several runs; for Emax at 100 µM: maximum percentage antagonism at Maximum Concentration of Compound Tested 100 μM, read-out: Maximum Response (%)
Protocol: Cells expressing human alpha1 nicotinic acetylcholine (nACh) receptor (nAChR) were washed and dissociated using Trypsin containing buffer. Cells were then washed and seeded at a density of 3-5 million cells/mL and allowed to grow for 3 days. Then, 60-80 μL of cells were added to plates and incubated with dose response of an ARM compound of Formula (I) with a top concentration of either 10 μM or 100 μM. The receptor was then stimulated via addition of acetylcholine (ACh) and activation of the receptor was monitored via the IONFlux automated patch clamp system. IonFlux Data Analyzer software was utilized to perform leak subtraction and measure (min) peak current amplitude.
Data processing: (1) Current values recorded for vehicle only applications in individual traps/patterns were subtracted from corresponding current amplitude values for control, test article and control+test article. (2) Control response was calculated as % of the average response of the 3rd out of total 3 ACh (10 mM) applications alone. In rare situations, if the 3rd ACh response was obscured due to technical artifacts, the 2nd and/or 1st ACh (10 mM) application was considered as control. The peak current amplitude generated in the presence of each test article concentration was then used to calculate the % inhibition as compared to control response (10 mM ACh alone). These estimates were further corrected for vehicle response and run down corrected by normalizing with time matched control responses (10 mM ACh alone). The corrected percentages were then fit with a non-linear function in GraphPad Prism 6 (or later versions) to determine the IC50.
Exclusion criteria: (i) any n's with poor recording quality, (ii) control current amplitude <500 pA or (iii) significant outliers, as determined by the Grubbs' test.
ARMs compounds of Formula (I) of the invention were tested for antagonism of the nAChR in the above assay in […] experimental runs and the results are shown in Table 6 below. Antagonistic activity of the compounds of Formula (I) of the invention is reported as an IC50 value (half maximal inhibitory concentration) and the maximum percentage antagonism observed at the highest concentration of compound of Formula (I) tested, as indicated in Table 6. For compounds tested in more than one experimental run, the IC50 value is reported as an average.

Sequence of human alpha1 nicotinic acetylcholine (nACh) receptor (P02708 21-457): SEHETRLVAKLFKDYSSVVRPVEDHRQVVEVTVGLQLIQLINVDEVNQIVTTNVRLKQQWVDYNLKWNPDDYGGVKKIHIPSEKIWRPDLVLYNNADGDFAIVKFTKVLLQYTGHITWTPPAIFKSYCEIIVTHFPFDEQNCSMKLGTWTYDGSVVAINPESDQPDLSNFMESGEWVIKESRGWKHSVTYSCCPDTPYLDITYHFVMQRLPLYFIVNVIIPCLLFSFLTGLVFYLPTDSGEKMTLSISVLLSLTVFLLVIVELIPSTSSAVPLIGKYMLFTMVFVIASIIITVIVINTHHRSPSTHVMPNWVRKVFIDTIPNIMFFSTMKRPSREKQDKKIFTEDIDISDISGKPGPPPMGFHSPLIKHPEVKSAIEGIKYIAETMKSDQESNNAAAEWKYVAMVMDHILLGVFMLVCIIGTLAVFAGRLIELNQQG
Sequence of human alpha1 nicotinic acetylcholine (nACh) receptor (P11230 24-501 partner): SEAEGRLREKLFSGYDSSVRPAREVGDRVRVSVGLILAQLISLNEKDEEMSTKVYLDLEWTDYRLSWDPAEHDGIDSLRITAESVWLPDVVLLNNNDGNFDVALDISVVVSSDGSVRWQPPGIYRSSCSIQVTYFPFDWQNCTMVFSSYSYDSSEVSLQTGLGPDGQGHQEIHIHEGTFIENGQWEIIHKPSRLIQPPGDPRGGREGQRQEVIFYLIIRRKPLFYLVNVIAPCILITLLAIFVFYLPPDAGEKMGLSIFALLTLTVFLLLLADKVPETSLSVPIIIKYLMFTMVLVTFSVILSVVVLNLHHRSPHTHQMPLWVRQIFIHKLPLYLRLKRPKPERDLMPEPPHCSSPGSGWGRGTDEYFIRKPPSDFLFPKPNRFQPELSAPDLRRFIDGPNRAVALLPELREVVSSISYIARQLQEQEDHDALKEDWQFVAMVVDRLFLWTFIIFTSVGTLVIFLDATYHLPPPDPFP
Sequence of human alpha1 nicotinic acetylcholine (nACh) receptor (Q07001 22-517): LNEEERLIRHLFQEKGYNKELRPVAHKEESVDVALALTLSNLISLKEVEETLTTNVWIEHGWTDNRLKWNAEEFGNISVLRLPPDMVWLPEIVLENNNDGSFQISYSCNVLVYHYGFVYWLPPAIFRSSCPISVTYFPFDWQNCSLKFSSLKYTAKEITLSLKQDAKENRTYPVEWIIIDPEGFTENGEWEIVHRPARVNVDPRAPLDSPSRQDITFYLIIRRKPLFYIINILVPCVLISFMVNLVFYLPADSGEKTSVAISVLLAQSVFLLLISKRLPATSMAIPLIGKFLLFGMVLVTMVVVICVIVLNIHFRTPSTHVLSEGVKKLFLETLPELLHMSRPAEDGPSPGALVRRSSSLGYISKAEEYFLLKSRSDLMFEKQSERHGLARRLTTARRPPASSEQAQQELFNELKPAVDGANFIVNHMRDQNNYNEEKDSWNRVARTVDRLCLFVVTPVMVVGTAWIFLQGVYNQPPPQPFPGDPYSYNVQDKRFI

| Structure (SMILES) | % Depletion of CCR2 expressing cells [1] [%] | IC50 [2] [µM] | Emax at 100 µM [2] [%] |
| --- | --- | --- | --- |
| CO[C@@H]1COCC[C@@H]1N[C@@H]1CC[C@](CCCNC(=O)CCOCCOCCOCCOCCOCCOCCOCCOCCOCCOCCOCCOCCNC(=O)[C@H]2CC(=O)N(C)[C@@H]2c2cccnc2)(C(=O)N2CCc3ncc(C(F)(F)F)cc3C2)C1 [Example 1, (2S,3S)—N-(43-((1S,3R)-3-(((3S,4S)-3-methoxytetrahydro-2H-pyran-4-yl)amino)-1-(3-(trifluoromethyl)-5,6,7,8-tetrahydro-1,6-naphthyridine-6-carbonyl)cyclopentyl)-39-oxo-3,6,9,12,15,18,21,24,27,30,33,36-dodecaoxa-40-azatritetracontyl)-1-methyl-5-oxo-2-(pyridin-3-yl)pyrrolidine-3-carboxamide] | 91.67 | > 100 | 29 |
| CO[C@@H]1COCC[C@@H]1N[C@@H]1CC[C@](CCC2CCN(C(=O)[C@H]3CC[C@H](NC(=O)CCCO[C@H]4CC[C@H](OCCNC(=O)[C@H]5CC(=O)N(C)[C@@H]5c5cccnc5)CC4)CC3)CC2)(C(=O)N2CCc3ncc(C(F)(F)F)cc3C2)C1 [Example 2, (2S,3S)—N-(2-(((1R,4S)-4-(4-(((1S,4R)-4-(4-(2-((1S,3R)-3-(((3S,4S)-3-Methoxytetrahydro-2H-pyran-4-yl)amino)-1-(3-(trifluoromethyl)-5,6,7,8-tetrahydro-1,6-naphthyridine-6-carbonyl)cyclopentyl)ethyl)piperidine-1-carbonyl)cyclohexyl)amino)-4-oxobutoxy)cyclohexyl)oxy)ethyl)-1-methyl-5-oxo-2-(pyridin-3-yl)pyrrolidine-3-carboxamide] | 97.7 | > 100 | 40 |
| CO[C@@H]1COCC[C@@H]1N[C@@H]1CC[C@](CCCNC(=O)[C@H]2CC[C@H](NC(=O)CCCO[C@H]3CC[C@H](OCCNC(=O)[C@H]4CC(=O)N(C)[C@@H]4c4cccnc4)CC3)CC2)(C(=O)N2CCc3ncc(C(F)(F)F)cc3C2)C1 [Example 3, (2S,3S)-N-(2-(((1R,4S)-4-(4-(((1S,4R)-4-((3-((1S,3R)-3-(((3S,4S)-3-Methoxytetrahydro-2H-pyran-4-yl)amino)-1-(3-(trifluoromethyl)-5,6,7,8-tetrahydro-1,6-naphthyridine-6-carbonyl)cyclopentyl)propyl)carbamoyl)cyclohexyl)amino)-4-oxobutoxy)cyclohexyl)oxy)ethyl)-1-methyl-5-oxo-2-(pyridin-3-yl)pyrrolidine-3-carboxamide] | 98.4 | > 100 | 38 |
| CO[C@@H]1COCC[C@@H]1N[C@@H]1CC[C@](CCCNC(=O)[C@H]2CC[C@@H](NC(=O)CCCO[C@H]3CC[C@@H](OCCNC(=O)[C@H]4CC(=O)N(C)[C@@H]4c4cccnc4)CC3)CC2)(C(=O)N2CCc3ncc(C(F)(F)F)cc3C2)C1 [Example 4, (2S,3S)-N-(2-(((1S,4R)-4-(4-(((1R,4S)-4-((3-((1S,3R)-3-(((3S,4S)-3-Methoxytetrahydro-2H-pyran-4-yl)amino)-1-(3-(trifluoromethyl)-5,6,7,8-tetrahydro-1,6-naphthyridine-6-carbonyl)cyclopentyl)propyl)carbamoyl)cyclohexyl)amino)-4-oxobutoxy)cyclohexyl)oxy)ethyl)-1-methyl-5-oxo-2-(pyridin-3-yl)pyrrolidine-3-carboxamide, Formic acid salt] | 99.69 |  | 48 |
| CO[C@@H]1COCC[C@@H]1N[C@@H]1CC[C@](CCCCCNC(=O)[C@H]2CC[C@H](NC(=O)CCCO[C@H]3CC[C@H](OCCNC(=O)[C@H]4CC(=O)N(C)[C@@H]4c4cccnc4)CC3)CC2)(C(=O)N2CCc3ncc(C(F)(F)F)cc3C2)C1 [Example 9, (2S,3S)-N-(2-(((1R,4S)-4-(4-(((1S,4R)-4-((5-((1S,3R)-3-(((3S,4S)-3-Methoxytetrahydro-2H-pyran-4-yl)amino)-1-(3-(trifluoromethyl)-5,6,7,8-tetrahydro-1,6-naphthyridine-6-carbonyl)cyclopentyl)pentyl)carbamoyl)cyclohexyl)amino)-4-oxobutoxy)cyclohexyl)oxy)ethyl)-1-methyl-5-oxo-2-(pyridin-3-yl)pyrrolidine-3-carboxamide] | 99 |  |  |
| CO[C@@H]1COCC[C@@H]1N[C@@H]1CC[C@@](C(=O)N2Cc3cc(C(F)(F)F)cnc3[C@@H](NC(=O)[C@H]3CC[C@H](NC(=O)CCCO[C@H]4CC[C@H](OCCNC(=O)[C@H]5CC(=O)N(C)[C@@H]5c5cccnc5)CC4)CC3)C2)(C(C)C)C1 [Example 15, (2S,3S)-N-(2-(((1R,4S)-4-(4-(((1S,4R)-4-(((S)-6-((1S,3R)-1-isopropyl-3-(((3S,4S)-3-methoxytetrahydro-2H-pyran-4-yl)amino)cyclopentane-1-carbonyl)-3-(trifluoromethyl)-5,6,7,8-tetrahydro-1,6-naphthyridin-8-yl)carbamoyl)cyclohexyl)amino)-4-oxobutoxy)cyclohexyl)oxy)ethyl)-1-methyl-5-oxo-2-(pyridin-3-yl)pyrrolidine-3-carboxamide] | 94.04 |  |  |
| CO[C@@H]1COCC[C@@H]1N[C@@H]1CC[C@@](C(=O)N2CCc3nc(CCCCOc4cccc(C(=O)NCCOCCOCCOCCOCCOCCOCCOCCOCCOCCNC(=O)[C@H]5CC(=O)N(C)[C@@H]5c5cccnc5)c4)c(C(F)(F)F)cc3C2)(C(C)C)C1 [Example 22, (2S,3S)—N-(1-(3-(4-(6-((1S,3R)-1-Isopropyl-3-(((3S,4S)-3-methoxytetrahydro-2H-pyran-4-yl)amino)cyclopentane-1-carbonyl)-3-(trifluoromethyl)-5,6,7,8-tetrahydro-1,6-naphthyridin-2-yl)butoxy)phenyl)-1-oxo-5,8,11,14,17,20,23,26,29-nonaoxa-2-azahentriacontan-31-yl)-1-methyl-5-oxo-2-(pyridin-3-yl)pyrrolidine-3-carboxamide] | 89 |  |  |
